Reference: US20140120106A1, “Stimulation of Arterial Collateral Growth and Lymphogenesis” (YALE UNIVERSITY, priority 2011, published 2014)

Experiments:
HUVEC [1] = test: qPCR of artery-vein specification genes in lentivirus infected HUVEC; assay type: cell-based, Human
HUVEC [2] = test: qPCR of lymphatic fate genes in virus-transduced HUVEC; assay type: cell-based, Human
14-3-3 = test: Immunoprecipitation of HA-RAF1 from HUVEC, western blot for 14-3-3; assay type: binding, Human; settings: anti-HA immunoprecipitation
HUVEC [3] = test: Western blot of DLL4, cleaved NOTCH1 and ERK in RAF1 virus infected HUVEC; assay type: cell-based, Human
[4] = test system: VE-cadherin-tTA/RAF1S259A double transgenic embryos; test: Endothelial-specific RAF1S259A transgenic mice (Noonan syndrome mouse model); assay type: in vivo; settings: primary EC purified from E12.5 S259A embryos versus control littermates
Excerpt: Human wild type Raf1 and RAF1S259A plasmids were gifts of Dr. Guri Tzivion (Wayne State University). To generate RAF1S259A transgenic mice, hRAF1S259A was cloned to NotI+PstI sites of pBI-G Tet-off vector (Clontech). TRE-RAF1S259A transgenic mouse line was then generated at the Yale Animal Genomics Services center. VE-cadherin-tT A mice (Sun, et al. Proc Natl Acad Sci USA 102:128-133 (2005)) were from W. Sessa lab (Yale). Time-mating was setup by intercross of male TRE-RAF1 S259A mice with VE-cadherin-tTA female mice. For paraffin and frozen sections, embryos were fixed in 4% paraformaldehyde for overnight at 4° C.
Primary mouse endothelial cells were isolated from E12.5 embryos using a protocol similar to that described by Ren, et al. J Clin Invest 120:1217-1228 (2010). Briefly, E12.5 embryos were harvested, minced finely with scissors, and then digested in 25 ml collagenase 0.2% (w/v) at 37° C. for 20 minutes. The crude cell preparation was pelleted and resuspended in DPBS. The cell suspension was incubated with CD31-coated beads (Invitrogen) at room temperature for 10 minutes with rotation. Using a magnetic separator, the bead-bound cells were recovered, washed with DMEM-20% FBS. The cells were then used for gene expression analysis by qPCR.

HUVEC [5] = test: Matrigel tube formation assay; assay type: cell-based, Human; settings: overexpression in HUVEC, 8 hours
HDLEC [6] = test: qPCR of lymphatic fate genes in adenovirus-transduced HDLEC; assay type: cell-based, Human
Akt1-/- cells = test: Dll4 expression in AKT+/+ and AKT-/- cells expressing RAF1 constructs; assay type: cell-based
Excerpt: FIGS. 3A to 3M show expression of Dll4 (FIG. 3A), Hey 1 (FIG. 3B), Hey 2 (FIG. 3C), Hes 1 (FIG. 3D), Coup-TFII (FIG. 3E), EphB4 (FIG. 3F), Dll1 (FIG. 3G), Ephrin B2 (FIG. 3G), Notch 1 (FIG. 3I), Notch 4 (FIG. 3J), Jagged 1 (FIG. 3K), FLK1 (FIG. 3L), Nrp1 (3N) and Flt4 (3N).

HUVEC [7] = test: Proliferation assay (cell counting); assay type: cell-based, Human; settings: overexpression in HUVEC
HUAEC = test: qPCR of Prox1 in lentivirus-transduced HUAEC; assay type: cell-based, Human; settings: HUAEC transduced with lentivirus
Excerpt: Raf1 lentiviruses were produced in 293A cells (Invitrogen) by co-transfection of pLVX-HA-Raf1 WT or S259A with lentiviral packaging plasmids pMD2.G, pRSV-REV and pMDLg/pRRE (Addgene) as described by Dull, J Virol 72:8463-8471 (1998). Control lentivirus was also made using an empty vector pLVX-IRES-puro. Ad-MEK1 CA was from Cell Biolabs, Inc. Ad-Mek1 DN was purchased from Vector Biolabs. All adenoviruses were produced, amplified and purified as described by Dull 1998; Luo, et al. Nat Protoc 2:1236-1247 (2007). For lentiviral infection, cells were incubated with lentivirus in growth medium in the presence of 8 μg/ml polybrene (Sigma) for 8 hours. For adenoviral infection, cells were incubated with adenovirus (MOI=100) in growth medium for overnight.
(§1) Total RNA was purified using a QiagenRNeasyPlus Mini kit. cDNA was synthesized using a Bio-Rad iScript cDNA Synthesisis kit. qPCR was performed using a Bio-Rad iQ SYBR Green Supermix on a Bio-Rad CFX96 Real Time System. For immunoblot, cells were lysed in RIPA buffer supplemented with protease and phosphatase inhibitors. Cell lysates were then separated with 4-20% gradient gel (Bio-Rad) and subjected to immunoblot.

HUVEC [8] = test: Apoptosis assay (serum withdrawal, Annexin V/PI flow cytometry); assay type: cell-based, Human; settings: serum-starved 48 hours, vehicle, versus empty control lentivirus
ERK = ERK activation by western blot in HUVEC infected with RAF1 WT or RAF1 S259A lentivirus; assay type: cell-based, Human
HUVEC [9] = test: Migration (wound healing) assay; assay type: cell-based, Human; settings: under stimulation of serum, 18 hours
HUVEC [10] = test: qPCR of lymphatic fate genes in RAF1-transduced HUVEC treated with pathway inhibitors for 24 hours; assay type: cell-based, Human; settings: HUVEC with GFP or RAF1S259A adenovirus, Rapamycin 10 nM, AKT inhibitor VIII 1 μM
Procedure: ERK activation was quantified by densitometry and is represented as ratio of pERK1/2 versus total ERK1/2. Immunofluorescence staining showing higher P-ERK1/2 in β-GAL positive endothelial cells of E12.5 S259A embryos. jv, jugular vein. FIGS. 10B-10E are graphs showing HUVEC transduced with control, wild type Raf1 or RAF1S259A lentiviruses treated with DMSO, MEK inhibitor U0126 (10 μM) or PI3K inhibitor LY294002 (10 μM) for 24 hours. Sox18 (FIG. 10B), Prox1 (Figure), Vegfr3 (FIG. 10D) and Lyve1 (10E) expression was assessed by qPCR. FIGS. 10E-10H are graphs showing HUVEC transduced with GFP or RAF1S259A adenoviruses treated with DMSO, Rapamycin (10 nM), AKT inhibitor VIII (1 μM) and LY294002 (10 μM) for 24 hours. Sox18 (FIG. 10F), Prox1 (FIG. 10G) and Coup-TFII (FIG. 10H) expression assessed by qPCR. Data are Mean±SEM (n=3).*, p<0.05; **, p<0.01.
as §1

HDLEC [11] = test: Sox18 expression in serum starved HDLEC stimulated with VEGF-C; assay type: cell-based, Human; settings: 100 ng/ml VEGF-C
Procedure: FIGS. 11A-11J are graphs showing excessive ERK activation is the basis of lymphatic abnormalities in Noonan syndrome. HUVEC (FIGS. 11A-11D) and HDLEC (FIGS. 11E-11H) were transduced with adenovirus expressing lacZ, cytosolic localized constitutive active ERK (ME) or nuclear localized constitutive active ERK (LA). Sox18 (FIGS. 11A and 11E), Prox1 (FIGS. 11B and 11F), Vegfr3 (FIGS. 11C and 11G) and Lyve1 (FIGS. 11D and 11H) expression were assessed by qPCR. Data are Mean±SEM (n=3). FIG. 11I is a graph of serum starved HDLEC stimulated with 100 ng/ml VEGF-C for an indicated time in the presence of […] (10 μM) or an equal volume of DMSO. Sox18 expression was assessed by qPCR. Data are Mean±SEM (n=3). FIG. 11J is a graph of lymphatic vessel diameter calculated by whole mount staining of skin vasculature of E14.5 embryos treated with MEK inhibitor U0126 or DMSO. Statistical significance was determined by two-tailed t-test (Control, n=5 embryos; S259A, n=3 embryos).
as §1

[12] = lentivirus infected HUVEC, qPCR
[13] = HUVEC transduced with the named construct
[14] = adenovirus MOI 0, 5, 10, 50 for 48 hours, HUVEC
[15] = HDLEC transduced with the named construct
[16] = serum-starved HUVEC, 50 ng/ml VEGF-A164

For “RAF1 S259A: RAF1 Ser259 to Ala259 mutant, not inhibited by AKT; expressed from lentivirus, adenovirus or endothelial transgene”, the Egr1 expression (HUVEC [1]; Raf1SA introduction) was “activated expression”, the Ets1 expression (HUVEC [1]; Raf1SA introduction) was “activated expression” and the “Sox7 expression” value (HUVEC [1]; Raf1SA introduction) was “not changed”. The Sox18 expression (HUVEC [1]; Raf1SA introduction) was “activated expression”, the “Coup-TFII (venous marker) gene expression” value (HUVEC [1]; [12]) was “no changes” and the Dll1 gene expression (HUVEC [1]; [12]) was “not affected”. For the same molecule, the Dll4 gene expression (HUVEC [1]; [12]) was “dramatically induced”, the “EphB4 (venous fate gene) expression” value (HUVEC [1]; [12]) was “no changes” and the “Ephrin B2 gene expression” value (HUVEC [1]; [12]) was “dramatically induced”. The Flk1 gene expression (HUVEC [1]; [12]) was “induced”, the Flt4 gene expression (HUVEC [1]; [12]) was “induced” and the Hes1 gene expression (HUVEC [1]; [12]) was “dramatically induced”. The Hey1 gene expression (HUVEC [1]; [12]) was “dramatically induced”, the Hey2 gene expression (HUVEC [1]; [12]) was “dramatically induced” and the Jagged1 gene expression (HUVEC [1]; [12]) was “dramatically induced”. The Notch4 gene expression (HUVEC [1]; [12]) was “dramatically induced”, the “neuropilin1 (Nrp1) gene expression” value (HUVEC [1]; [12]) was “dramatically induced” and the “Coup-TFII (venous marker) gene expression” value (HUVEC [1]; lentivirus infected HUVEC, qPCR, listed as RAF1S259A) was “slightly inhibiting”. For the same molecule, the Sox7 expression (HUVEC [2]; HUVEC transduced with lentivirus) was “unchanged”, the Lyve1 expression (HUVEC [2]; [13]) was “Increased expression” and the Prox1 expression (HUVEC [2]; [13]) was “upregulated”. For the same molecule, the Sox17 expression (HUVEC [2]; [13]) was “significant increase”, the Sox18 expression (HUVEC [2]; [13]) was “significant increase” and the Vegfr3 expression (HUVEC [2]; [13]) was “Increased expression”. For the same molecule, the Coup-TFII levels (HUVEC [2]; in vitro or in vivo) was “no significant effect”, the “co-immunoprecipitation with 14-3-3” value (14-3-3) was “did not” and the “NOTCH1 activation (cleaved NOTCH1)” value (HUVEC [3]; HUVEC) was “activated”. For the same molecule, the DLL4 protein (HUVEC [3]; [14]) was “dose-dependent and parallel increase”, the ERK activity (HUVEC [3]; [14]) was “dose-dependent and parallel increase” and the Dll4 protein (HUVEC [3]; lentivirus overexpression in HUVEC) was “dramatically increased”. The Sox18 levels [4] was “significantly higher”, the “tube formation (tube length)” value (HUVEC [5]) was “significantly improved” and the Prox1 expression (HDLEC [6]; HDLEC transduced with adenovirus) was “not”. The Lyve1 expression (HDLEC [6]; [15]) was “Increased expression”, the Sox17 expression (HDLEC [6]; [15]) was “significant increase” and the Sox18 expression (HDLEC [6]; [15]) was “significant increase”. For the same molecule, the Vegfr3 expression (HDLEC [6]; [15]) was “Increased expression”, the DLL4 expression (Akt1-/- cells) was “strongly induced” and the cell proliferation (HUVEC [7]) was “significantly inhibited”. The Prox1 expression (HUAEC) was “upregulated”, the cell survival (HUVEC [8]) was “significantly higher survival” and the ERK activation (ERK; overexpression in HUVEC by lentivirus) was “constitutive activation”. For the same molecule, the Akt signaling (ERK; [16]) was “remains normal”, the Erk activation (ERK; [16]) was “constitutive activation” and the cell migration (HUVEC [9]) was “significantly promoted”.

For `O=c1[nH]c2ccccc2n1C1CCN(Cc2ccc(-c3nc4cc5[nH]cnc5cc4nc3-c3ccccc3)cc2)CC1` [AKT inhibitor VIII], the Coup-TFII expression (HUVEC [10]) was “significantly inhibited”, the Prox1 expression (HUVEC [10]) was “significantly inhibited” and the Sox18 expression (HUVEC [10]) was “slightly inducing”.

B1: VEGF-C: growth factor from R&D, the key VEGF in lymphatic EC (protein, UniProt P49767 112-227, looked up)
Vascular endothelial growth …: AHYNTEILKSIDNEWRKTQCMPREVCIDVGKEFGVATNTFFKPPCVSVYRCGGCCNSEGLQCMNTSTSYLSKTLFEITVPLSQGPKPVTISFANHTSCRCMSKLDVYRQVHSIIRR
With B1 the Sox18 expression (HDLEC [11]) was “induced”.
